Results reported in ChEMBL document CHEMBL4610060, “Orally bioavailable amine-linked macrocyclic inhibitors of factor XIa” (Bioorg Med Chem Lett, 2020).

Columns and labels:
Plasma = test: Anticoagulant activity in human plasma assessed as EC1.5 of activated partial thromboplastin time by coagulometric analysis; assay type: functional
[1] = Metabolic stability in human liver microsomes assessed as half life; assay type: ADME, Microsome
Coagulation factor XI = Coagulation factor XI (Homo sapiens, UniProt P03951); test: Inhibition of recombinant human activated coagulation factor XI using pyro-Glu-Pro-Arg-pNA as substrate by spectrophotometry
[2] = Half life in Sprague-Dawley rat at 0.53 mg/kg, iv or 1.06 mg/kg, po measured upto 24 hrs by LC-MS/MS analysis; assay type: ADME, organism-based; conditions: in vivo
[3] = Clearance in Sprague-Dawley rat at 0.53 mg/kg, iv or 1.06 mg/kg, po measured upto 24 hrs by LC-MS/MS analysis; assay type: ADME, organism-based; conditions: in vivo
[4] = Permeability across basolateral to apical side in human Caco2 cells; assay type: ADME, cell-based; conditions: Caco-2, read-out: permeability
[5] = Metabolic stability in rat liver microsomes assessed as half life; assay type: ADME, Microsome
[6] = Permeability across apical to basolateral side in human Caco2 cells; assay type: ADME, cell-based; conditions: Caco-2, read-out: permeability
[7] = Oral bioavailability in Sprague-Dawley rat at 1.06 mg/kg measured upto 24 hrs by LC-MS/MS analysis; assay type: ADME, organism-based; conditions: in vivo
[8] = Protein binding in rat assessed as unbound fraction; assay type: ADME
[9] = AUC in Sprague-Dawley rat at 1.06 mg/kg, po measured upto 24 hrs by LC-MS/MS analysis; assay type: ADME, organism-based; set-up: time < 24 hr, dose 1.06 mg/kg, route oral; conditions: in vivo
[10] = Volume of distribution at steady state in Sprague-Dawley rat at 0.53 mg/kg, iv or 1.06 mg/kg, po measured upto 24 hrs by LC-MS/MS analysis; assay type: ADME, organism-based; conditions: in vivo, read-out: Vdss
[11] = Volume of distribution at steady state in Sprague-Dawley rat at 0.49 mg/kg, iv or 0.98 mg/kg, po measured upto 24 hrs by LC-MS/MS analysis; assay type: ADME, organism-based; conditions: in vivo, read-out: Vdss
[12] = Half life in Sprague-Dawley rat at 0.49 mg/kg, iv or 0.98 mg/kg, po measured upto 24 hrs by LC-MS/MS analysis; assay type: ADME, organism-based; conditions: in vivo
[13] = Clearance in Sprague-Dawley rat at 0.49 mg/kg, iv or 0.98 mg/kg, po measured upto 24 hrs by LC-MS/MS analysis; assay type: ADME, organism-based; conditions: in vivo
[14] = AUC in Sprague-Dawley rat at 0.98 mg/kg, po measured upto 24 hrs by LC-MS/MS analysis; assay type: ADME, organism-based; set-up: time < 24 hr, dose 0.98 mg/kg, route oral; conditions: in vivo
[15] = Oral bioavailability in Sprague-Dawley rat at 0.98 mg/kg measured upto 24 hrs by LC-MS/MS analysis; assay type: ADME, organism-based; conditions: in vivo
[16] = Volume of distribution at steady state in Sprague-Dawley rat at 0.50 mg/kg, iv or 1.0 mg/kg, po measured upto 24 hrs by LC-MS/MS analysis; assay type: ADME, organism-based; conditions: in vivo, 0.5 mg/kg, read-out: Vdss
[17] = AUC in Sprague-Dawley rat at 1.0 mg/kg, po measured upto 24 hrs by LC-MS/MS analysis; assay type: ADME, organism-based; set-up: dose 1 mg/kg, time < 24 hr, route oral; conditions: in vivo
[18] = Oral bioavailability in Sprague-Dawley rat at 1.0 mg/kg measured upto 24 hrs by LC-MS/MS analysis; assay type: ADME, organism-based; conditions: in vivo
[19] = Half life in Sprague-Dawley rat at 0.50 mg/kg, iv or 1.0 mg/kg, po measured upto 24 hrs by LC-MS/MS analysis; assay type: ADME, organism-based; conditions: in vivo
[20] = Clearance in Sprague-Dawley rat at 0.50 mg/kg, iv or 1.0 mg/kg, po measured upto 24 hrs by LC-MS/MS analysis; assay type: ADME, organism-based; conditions: in vivo, 0.5 mg/kg
[21] = Clearance in Sprague-Dawley rat at 0.31 mg/kg, iv or 0.61 mg/kg, po measured upto 24 hrs by LC-MS/MS analysis; assay type: ADME, organism-based; conditions: in vivo
[22] = AUC in Sprague-Dawley rat at 0.61 mg/kg, po measured upto 24 hrs by LC-MS/MS analysis; assay type: ADME, organism-based; set-up: time < 24 hr, dose 0.61 mg/kg, route oral; conditions: in vivo
[23] = Half life in Sprague-Dawley rat at 0.31 mg/kg, iv or 0.61 mg/kg, po measured upto 24 hrs by LC-MS/MS analysis; assay type: ADME, organism-based; conditions: in vivo
[24] = Volume of distribution at steady state in Sprague-Dawley rat at 0.31 mg/kg, iv or 0.61 mg/kg, po measured upto 24 hrs by LC-MS/MS analysis; assay type: ADME, organism-based; conditions: in vivo, read-out: Vdss
[25] = Oral bioavailability in Sprague-Dawley rat at 0.61 mg/kg measured upto 24 hrs by LC-MS/MS analysis; assay type: ADME, organism-based; conditions: in vivo
[26] = Volume of distribution at steady state in Sprague-Dawley rat at 0.72 mg/kg, iv or 1.44 mg/kg, po measured upto 24 hrs by LC-MS/MS analysis; assay type: ADME, organism-based; conditions: in vivo, read-out: Vdss
[27] = Clearance in Sprague-Dawley rat at 0.72 mg/kg, iv or 1.44 mg/kg, po measured upto 24 hrs by LC-MS/MS analysis; assay type: ADME, organism-based; conditions: in vivo
[28] = Oral bioavailability in Sprague-Dawley rat at 1.44 mg/kg measured upto 24 hrs by LC-MS/MS analysis; assay type: ADME, organism-based; conditions: in vivo
[29] = AUC in Sprague-Dawley rat at 1.44 mg/kg, po measured upto 24 hrs by LC-MS/MS analysis; assay type: ADME, organism-based; set-up: time < 24 hr, dose 1.44 mg/kg, route oral; conditions: in vivo
[30] = Half life in Sprague-Dawley rat at 0.72 mg/kg, iv or 1.44 mg/kg, po measured upto 24 hrs by LC-MS/MS analysis; assay type: ADME, organism-based; conditions: in vivo

Sequence of Coagulation factor XI (P03951 19-387 limits assumed): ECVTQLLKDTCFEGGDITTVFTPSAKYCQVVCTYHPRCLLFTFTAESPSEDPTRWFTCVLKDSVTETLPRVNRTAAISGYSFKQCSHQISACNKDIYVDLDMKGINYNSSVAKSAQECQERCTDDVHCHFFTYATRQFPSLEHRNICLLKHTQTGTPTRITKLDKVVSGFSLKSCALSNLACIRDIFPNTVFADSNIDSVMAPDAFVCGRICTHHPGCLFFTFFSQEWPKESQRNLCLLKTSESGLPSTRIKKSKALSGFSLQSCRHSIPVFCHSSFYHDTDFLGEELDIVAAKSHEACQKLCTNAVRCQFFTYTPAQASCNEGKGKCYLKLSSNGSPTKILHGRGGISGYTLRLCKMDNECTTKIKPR
Sequence of Coagulation factor XI (P03951 388-625 limits assumed): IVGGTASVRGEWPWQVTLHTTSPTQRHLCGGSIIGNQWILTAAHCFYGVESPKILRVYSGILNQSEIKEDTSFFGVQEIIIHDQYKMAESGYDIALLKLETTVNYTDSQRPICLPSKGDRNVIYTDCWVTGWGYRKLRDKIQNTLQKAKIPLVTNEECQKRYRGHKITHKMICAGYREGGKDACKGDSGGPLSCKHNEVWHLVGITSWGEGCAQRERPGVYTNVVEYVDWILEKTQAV

In the case of COC(=O)Nc1ccc2c(c1)C[C@@H](C(=O)OC)CCCC[C@H](NC(=O)/C=C/c1cc(Cl)ccc1-n1cnnn1)c1nc-2c[nH]1, the EC1.5 (Plasma) is reported as 25 µM, the half-life [1] is reported as 8 min and the Ki (Coagulation factor XI) is reported as 24 nM.

Molecule COC(=O)C[C@H]1CCCC[C@H](NC(=O)/C=C/c2cc(Cl)ccc2-n2cnnn2)c2nc(c[nH]2)-c2ccc(NC(=O)OC)cc2N1 has an EC1.5 (Plasma) of 1.1 µM, a half-life [1] of 4 min and a Ki (Coagulation factor XI) of 2 nM.

COC(=O)Nc1ccc2c(c1)N[C@@H](C(=O)OC)CCCC[C@H](NC(=O)/C=C/c1cc(Cl)ccc1-n1cnnn1)c1nc-2c[nH]1 gave a half-life [2] of 108 min, a clearance [3] of 3 mL/min/kg and an EC1.5 (Plasma) of 0.55 µM. The Papp B→A [4] was 10.3 ×10⁻⁶ cm/s, the half-life [1] was 10 min and the half-life [5] was 48 min. For the same molecule, the Papp A→B [6] was < 1.5 ×10⁻⁶ cm/s, the Ki (Coagulation factor XI) was 0.46 nM and the bioavailability [7] was 8%. For the same molecule, the fraction unbound [8] was < 0.002, the AUC at 24 h [9] was 0.487 µM·h and the Vd [10] was 0.3 L/kg.

For O=C(/C=C/c1cc(Cl)ccc1-n1cnnn1)N[C@H]1C/C=C/CCC(=O)Nc2cc(F)ccc2-c2c[nH]c1n2, the EC1.5 (Plasma) was 16 µM, the half-life [1] was 3 min and the Ki (Coagulation factor XI) was 12 nM.

For COC(=O)Nc1ccc2c(c1)N[C@@H](C(=O)O)CCCC[C@H](NC(=O)/C=C/c1cc(Cl)ccc1-n1cnnn1)c1nc-2c[nH]1, the Vd [11] was 0.33 L/kg, the EC1.5 (Plasma) was 0.87 µM and the Papp B→A [4] was < 1.5 ×10⁻⁶ cm/s. The half-life [1] was 70 min, the half-life [5] was 75 min and the Papp A→B [6] was < 1.5 ×10⁻⁶ cm/s. For the same molecule, the half-life [12] was 60 min, the clearance [13] was 7.7 mL/min/kg and the AUC at 24 h [14] was 0.014 µM·h. The bioavailability [15] was 1%, the Ki (Coagulation factor XI) was 0.67 nM and the fraction unbound [8] was 0.014.

Molecule COC(=O)Nc1ccc2c(c1)N[C@@H](C)CCCC[C@H](NC(=O)/C=C/c1cc(Cl)ccc1-n1cnnn1)c1nc-2c[nH]1 has an EC1.5 (Plasma) of 5.2 µM, a half-life [1] of 7 min and a Ki (Coagulation factor XI) of 8.3 nM.

In the case of COC(=O)Nc1ccc2c(c1)N[C@@H](C(=O)O)CCCC[C@H](NC(=O)/C=C/c1cc(Cl)ccc1-n1cnnn1)c1cc-2ccn1, the EC1.5 (Plasma) is reported as 7.1 µM, the half-life [1] is reported as 99 min and the Ki (Coagulation factor XI) is reported as 2.6 nM.

For CCOC(=O)[C@H]1CCCC[C@H](NC(=O)/C=C/c2cc(Cl)ccc2-n2cnnn2)c2cc(ccn2)-c2ccc(NC(=O)OC)cc2N1, the Vd [16] was 1.3 L/kg, the EC1.5 (Plasma) was 6.1 µM and the Papp B→A [4] was 10.1 ×10⁻⁶ cm/s. The half-life [1] was 30 min, the half-life [5] was 59 min and the Papp A→B [6] was < 1.5 ×10⁻⁶ cm/s. The Ki (Coagulation factor XI) was 2.5 nM, the fraction unbound [8] was 0.008 and the AUC at 24 h [17] was 1.29 µM·h. It also gave a bioavailability [18] of 41%, a half-life [19] of 216 min and a clearance [20] of 4.9 mL/min/kg.

In the case of O=C(/C=C/c1cc(Cl)ccc1-n1cnnn1)N[C@H]1CCCCC(=O)Nc2ccccc2-c2c[nH]c1n2, the clearance [21] is reported as 53 mL/min/kg, the EC1.5 (Plasma) is reported as >40 µM and the Papp B→A [4] is reported as 20.5 ×10⁻⁶ cm/s. The half-life [1] was 6 min, the Papp A→B [6] was < 1.5 ×10⁻⁶ cm/s and the AUC at 24 h [22] was 0.001 µM·h. The half-life [23] was 30 min, the Vd [24] was 1.2 L/kg and the Ki (Coagulation factor XI) was 48 nM. For the same molecule, the bioavailability [25] was < 1%.

With COC(=O)Nc1ccc2c(c1)N[C@@H](C(F)(F)F)CC/C=C/C[C@H](NC(=O)/C=C/c1cc(Cl)ccc1-n1cnnn1)c1nc-2c[nH]1 the EC1.5 (Plasma) was >40 µM, the half-life [1] was 29 min and the Ki (Coagulation factor XI) was 53 nM.

COC(=O)Nc1ccc2c(c1)N[C@@H](C(F)(F)F)CCCC[C@H](NC(=O)/C=C/c1cc(Cl)ccc1-n1cnnn1)c1cc-2ccn1 gave an EC1.5 (Plasma) of 13 µM, a half-life [1] of 95 min and a Ki (Coagulation factor XI) of 16 nM.

For COC(=O)Nc1ccc2c(c1)N[C@@H](C(F)(F)F)CCCC[C@H](NC(=O)/C=C/c1cc(Cl)ccc1-n1cnnn1)c1nc-2c[nH]1, the EC1.5 (Plasma) was 2.6 µM, the Vd [26] was 0.4 L/kg and the half-life [1] was 54 min. The half-life [5] was 14 min, the clearance [27] was 12 mL/min/kg and the Ki (Coagulation factor XI) was 1.1 nM. It also gave a fraction unbound [8] of 0.002, a bioavailability [28] of 9% and an AUC at 24 h [29] of 0.307 µM·h. For the same molecule, the half-life [30] was 84 min.
